Measurements: PMC10748408 (Frontiers in Oncology, 2023)

What was measured:
normal mice = assay: Serum biochemical parameters (ALT, AST, creatinine, urea) of normal mice treated with ART; assay type: in vivo, BALB/c mice
Experimental: Levels of alanine aminotransferase (ALT) and aspartate aminotransferase (AST) from the serum were determined using ALT and AST estimation kits (Robonik India Pvt. Ltd, India). Briefly, for ALT activity estimation, Reagent 1 (Tris Buffer, L-Alanine, Lactate Dehydrogenase) and Reagent 2 (α-ketoglutarate, NADH) was mixed (4:1) with 100 µl serum. After 60 seconds incubation, absorbance was measured at 340 nm every minute for 180 seconds (ΔA/minute). Finally, the activity was estimated using the formula: Activity of the sample = (ΔA/minute x 1746). Analysis and final calculations were carried out according to the manufacturer’s protocol ([29]) For AST activity estimation, Reagent 1 (Tris Buffer, L-Aspartate, Lactate Dehydrogenase; >600U/L, Malate dehydrogenase; >600U/L) and Reagent 2 (α-ketoglutarate, NADH) was mixed together (4:1) with 100 µl serum. After incubation for 60 seconds, absorbance was measured at 340 nm per minute for 180 seconds (ΔA/minute). Finally, the activity was estimated using the formula: Activity of the sample = (ΔA/minute x 1746). Analysis and final calculations were carried out according to the manufacturer’s protocol ([30]). For estimation of creatinine level, picric acid (0.5 ml), buffer (0.5 ml) and sample (Test)/standard (S) (0.1 ml) were mixed and absorbance was measured at 520 nm for 30 seconds and 60 seconds. The rate of change of absorbance was determined for the standard (ΔS) and test (ΔT) samples. The levels were estimated using the formula: creatinine (mg/dl) = (ΔT)/(ΔS) x 2.0 ([31]). Urea levels were estimated using specific metabolite analysis kits. Buffer (1 ml), enzyme (0.1 ml), sample (test)/standard (0.1 ml) and chromogen reagent (0.2 ml) were mixed. Absorbance was measured at 570 nm after 5 minutes of incubation of test (Abs T) and standard (Abs S) samples. The levels were estimated using the formula: Urea (mg/dl) = (AbsT)/(AbsS) x 40. Analysis and calculations were carried out according to the manufacturer’s protocol ([32]). […]

4T1 cells = assay: Apoptotic cells (Annexin-FITC/PI flow cytometry) with or without CLEC12A overexpression; assay type: cell-based, murine; settings: 4T1, non-transfected, ART + (1 µM, 24 hours); without ART 0.2%
Experimental: Cells, isolated from normal and treated/untreated tumor tissues by collagenase-hyaluronidase digestion, were washed with Ca^2+-free PBS and stained with Annexin V binding buffer (1X). The cells were then incubated with Annexin V-FITC and propidium iodide (PI) for 15 minutes at 37°C. Cells were eventually analyzed on the BD FACS Aria III (Alexa Fluor at 488nm and PE at 570 nm, respectively). The percentage of apoptotic and necrotic cells were analyzed using the […]™ software (BD Biosciences, USA; [37]). For transfection, MDA-MB-231 and 4T1 cells were grown in a 6-well plate until they reached 70% confluency. CLEC12A-pcDNA recombinant/empty DNA plasmid (2500ng) or pcDNA empty vector (2500ng) was transfected into cells using 5μl Lipofectamine® 2000 reagent. […] Finally, transfection efficiency was confirmed by western blot analysis ([42]).

tumor cells = assay: Cell cycle assay (PI, flow cytometry) of cells isolated from tumors; assay type: in vivo, BALB/c mice; settings: 25 and 50 mg/kg bodyweight ART vs untreated tumor-bearing mice, p<0.05
Experimental: Cells (1 x 10^6) were isolated from tissues by collagenase-hyaluronidase digestion and fixed in ice-cold ethanol at -20°C. Samples were washed and resuspended in PBS containing 40 µg/mL RNase A for 1 hr. The cells were then stained with 30 µg/mL propidium iodide in the dark for 30 minutes and analyzed by flow cytometry using the BD Verse (BD Biosciences, USA). Data were analyzed using the BD FACSuite™ software ([35]).

CLEC12A = assay: Western blot of CLEC12A in tumor tissues; assay type: in vivo, BALB/c mice; settings: ART treatment, dose-dependent
Experimental: Normal and tumor tissues were homogenized in ice-cold radioimmunoprecipitation assay (RIPA) buffer containing a protease inhibitor cocktail. Proteins were resolved by 10% sodium dodecyl sulphate-polyacrylamide gel electrophoresis (SDS-PAGE), transferred onto polyvinylidene difluoride (PVDF) membranes, blocked with 5% fat-free milk and incubated with primary antibodies (1:1000 dilution) overnight at 4°C. Blots were subsequently washed and incubated with respective secondary antibodies, tagged with horseradish peroxidase. Protein expression was detected using enhanced chemiluminescence (ECL) kit ([37]). Blots were analyzed using the Gel Doc XR and band intensity quantified using ImageJ software (NIH, USA).

[1] = tested on: TNF-α, IL-1β, IL-6 and IL-12; assay: Serum pro-inflammatory cytokine ELISA; assay type: in vivo, BALB/c mice; settings: ART-treated vs untreated tumor-bearing mice
Experimental: Serum isolated from experimental mice, and conditioned media collected from MDA-MB-231 and 4T1 cells, were used to estimate levels of cytokines by ELISA. To prepare the conditioned media, the cell culture medium containing serum was discarded and cells were washed with serum-free DMEM media. […] After incubation, the conditioned media was collected for cytokine analysis. As per the manufacturer’s protocol, samples were added to the multi-analyte ELISArray wells, coated with antibodies for TNF-α, IL-1β, IL-6 and IL-12 and incubated for 2 hours. Detection antibodies were added, followed by 30 minutes incubation with avidin-HRP. After incubating with the developing solution, stop solution (Qiagen) was added to terminate the reaction ([39]). The O.D. was measured at 450 and 570 nm in an ELISA plate reader (Varioskan Lux, Thermo Fisher; USA).

[2] = ART 6.25 mg/kg body wt, 3 weeks (21 days)
[3] = ART 12.5 mg/kg body wt, 3 weeks (21 days)
[4] = ART 25 mg/kg body wt, 3 weeks (21 days)
[5] = ART 50 mg/kg body wt, 3 weeks (21 days)

C[C@@H]1CC[C@H]2[C@@H](C)C(=O)O[C@@H]3O[C@@]4(C)CC[C@@H]1[C@]32OO4 [ART, Artemisinin]
ALT (normal mice; [2]): 28.1±2.6 U/l
AST (normal mice; [2]): 29.8±4.6 U/l
Creatinine (normal mice; [2]): 0.48 ± 0.21 mg/dL
Urea (normal mice; [2]): 31.6 ± 1.9 mg/dL
ALT (normal mice; ART 6.25 mg/kg body wt, 7 days): 23.7 ± 1.8 U/l
AST (normal mice; ART 6.25 mg/kg body wt, 7 days): 27.3 ± 0.8 U/l
Creatinine (normal mice; ART 6.25 mg/kg body wt, 7 days): 0.51 ± 0.09 mg/dL
Urea (normal mice; ART 6.25 mg/kg body wt, 7 days): 24.5 ± 1.2 mg/dL
ALT (normal mice; [3]): 29.3±3.1 U/l
AST (normal mice; [3]): 31.4±2.6 U/l
Creatinine (normal mice; [3]): 0.68 ± 0.12 mg/dL
Urea (normal mice; [3]): 28.7 ± 2.3 mg/dL
ALT (normal mice; ART 12.5 mg/kg body wt, 7 days): 26.6 ± 2.2 U/l
AST (normal mice; ART 12.5 mg/kg body wt, 7 days): 29.6 ± 1.3 U/l
Creatinine (normal mice; ART 12.5 mg/kg body wt, 7 days): 0.77 ± 0.13 mg/dL
Urea (normal mice; ART 12.5 mg/kg body wt, 7 days): 26.3 ± 1.6 mg/dL
ALT (normal mice; [4]): 29.5±2.1 U/l
AST (normal mice; [4]): 28.5±2.8 U/l
Creatinine (normal mice; [4]): 0.49 ± 0.3 mg/dL
Urea (normal mice; [4]): 30.1 ± 2.6 mg/dL
ALT (normal mice; ART 25 mg/kg body wt, 7 days): 30.7 ± 1.5 U/l
AST (normal mice; ART 25 mg/kg body wt, 7 days): 31.7 ± 3.1 U/l
Creatinine (normal mice; ART 25 mg/kg body wt, 7 days): 0.62 ± 0.07 mg/dL
Urea (normal mice; ART 25 mg/kg body wt, 7 days): 28.2 ± 0.8 mg/dL
ALT (normal mice; [5]): 28.8±3.2 U/l
AST (normal mice; [5]): 30.3±1.9 U/l
Creatinine (normal mice; [5]): 0.62 ± 0.38 mg/dL
Urea (normal mice; [5]): 28.9 ± 2.1 mg/dL
ALT (normal mice; ART 50 mg/kg body wt, 7 days): 26.4 ± 2.3 U/l
AST (normal mice; ART 50 mg/kg body wt, 7 days): 29.3 ± 2.6 U/l
Creatinine (normal mice; ART 50 mg/kg body wt, 7 days): 0.71 ± 0.1 mg/dL
Urea (normal mice; ART 50 mg/kg body wt, 7 days): 27.1 ± 1.3 mg/dL
percentage of apoptotic cells (4T1 cells): 11%
percentage of G2/M cell count (tumor cells): significant increase
expression of CLEC12A (CLEC12A): reduced
levels of pro-inflammatory cytokines (TNF-α, IL-1β, IL-6 and IL-12) [1]: dose-dependent reduction
